Measurements published in patent US20250213478A1, “CATIONIC LIPID HAVING DISULFIDE BOND, LIPID MEMBRANE STRUCTURE INCLUDING SAME, NUCLEIC ACID INTRODUCTION AGENT AND PHARMACEUTICAL COMPOSITION CONTAINING ANY ONE OF SAME, METHOD FOR INTRODUCING NUCLEIC ACID INTO CELL OR TARGET CELL, AND METHOD FOR PRODUCING CELLULAR PHARMACEUTICAL” (NOF Corporation, priority 2022, published 2025).

Experiments:
[1] = Particle size, PdI and zeta potential of mRNA-encapsulating LNPs (dynamic light scattering); assay type: physicochemical; conditions: mRNA-encapsulating LNP, cationic lipid:DOPC:Chol=55:5:40 + about 1 mol DMG-PEG2k; for PdI / particle size: dynamic light scattering; for zeta potential: physiological pH
Protocol: (§1) A 10 mM ethanol solution of cationic lipid, a 5 mM ethanol solution of DOPC, and a 10 mM ethanol solution of Chol were mixed at desired ratio (cationic lipid:DOPC:Chol=55:5:40 (molar ratio)) in an Eppendorf tube to achieve the total lipid amount of 720 nmol. To the obtained mixture was further added DMG-PEG2k (2 mM ethanol solution) in an amount of about 1 mol with respect to the total amount 100 mol of cationic lipid, DOPC, and Chol, and then ethanol was added to prepare an ethanol solution of the lipid (total amount: 360 μL).
An acidic buffer solution (total amount: 1080 μL) of nucleic acid was prepared by weighing 7.2 μg of mRNA solution (0.6 mg/mL) in a 5 mL tube and adding acidic malate buffer (20 mM, pH 3.0) containing NaCl at a final concentration of 30 mM.
An acidic buffer solution of nucleic acid and an ethanol solution of lipid were each weighed in a syringe. Using an ultra high-speed nanomedicament producing apparatus NanoAssmblr (manufactured by Precision NanoSystems), LNP was prepared under the conditions of addition rate of acidic buffer solution of nucleic acid: 3 mL/min, addition rate of ethanol solution of lipid: 1 mL/min, and syringe holder temperature: 25° C., and collected in a 15 mL tube. MES buffer (pH 6.5) (3000 μL) was added to the 15 mL tube, the obtained mixture was transferred to Amicon Ultra 4, and ultrafiltration was performed under centrifugation conditions (25° C., 1000 g, 6 min) to concentrate the mixture to about 100 μL. The obtained concentrate was diluted with PBS to 4 mL, and the mixture was concentrated again under centrifugation conditions (25° C., 1000 g, 6 min), and this operation was performed twice. The obtained concentrate was diluted with PBS to a lipid concentration of 2 mM to give a dispersion containing LNP.
The particle size, PdI (Polydispersity Index), and zeta potential of the mRNA-encapsulating LNP prepared by the method of the above-mentioned 1 were measured by a dynamic light scattering method. In Comparative Example, the cationic lipid described in the aforementioned Table 3 were used.

[2] = Measurement of Liposomal pKa of LNP (TNS fluorescence); assay type: physicochemical; conditions: LNP without nucleic acid, cationic lipid:DOPC:Chol=52.5:7.5:40 + about 1.5 mol DMG-PEG2k; pH at which relative TNS fluorescence intensity was 50%
Protocol: Lipid nanoparticles (LNP) without containing nucleic acid were used for the evaluation of Liposomal pKa.
as §1, with “(cationic lipid:DOPC:Chol=52.5:7.5:40” for “(cationic lipid:DOPC:Chol=55:5:40”, “about 1.5” for “about 1”
An acidic malic acid buffer (20 mM, pH 3.0) (1080 μL) containing NaCl at a final concentration of 30 mM and an ethanol solution (360 μL) of lipid were each weighed in a syringe. Using an ultra high-speed nanomedicament producing apparatus NanoAssmblr (manufactured by Precision NanoSystems), LNP was prepared under the conditions of addition rate of acidic buffer solution: 3 mL/min, addition rate of ethanol solution of lipid: 1 mL/min, and syringe holder temperature: 25° C., and collected in a 15 mL tube. MES buffer (pH 6.5) (3000 μL) was added to the 15 mL tube, the obtained mixture was transferred to Amicon Ultra 4, and ultrafiltration was performed under centrifugation conditions (25° C., 1000 g, 6 min) to concentrate the mixture to about 100 μL. The obtained concentrate was diluted with PBS to 4 mL, and the mixture was concentrated again under centrifugation conditions (25° C., 1000 g, 6 min), and this operation was performed twice. The obtained concentrate was diluted with PBS to a lipid concentration of 0.5 mM to give a dispersion containing LNP.
20 mM Citrate buffer, sodium phosphate buffer, and tris HCl buffer, each containing NaCl at a final concentration of 150 mM and adjusted to various pHs within the range of pH 3.0 to 10.0, were prepared. TNS (manufactured by Sigma) was diluted with ultrapure water to 0.6 mM. TNS solution (2 μL), dispersions (12 μL) containing LNP prepared in [Experimental Example 1], 1., and buffers adjusted to various pHs (186 μL) were added to a black 96 well plate. The plate was protected from light and shaken at 400 rpm for 10 min. The fluorescence intensity (excitation: 321 nm/emission: 447 nm) was measured using a plate reader (manufactured by TECAN). The relative fluorescence intensity was calculated as a percentage, with the maximum value of the fluorescence intensity in each LNP being 100% and the minimum value being 0%. Furthermore, the pH at which the relative fluorescence intensity was 50% was taken as Liposomal pKa. In Comparative Example, the cationic lipid described in the aforementioned Table 3 were used.

[3] = test system: HeLa cells; experiment: Evaluation of in vitro gene expression in HeLa cell (luciferase mRNA-encapsulating LNP); assay type: cell-based, human; conditions: for cumulative luciferase luminescence intensity over 24 hr: luciferase mRNA 0.4 μg per dish, LNP cationic lipid:DOPC:Chol:DMG-PEG2k=55:5:40:1; for gene expression activity compared to Comparative Example: result in words
Protocol: (§2) LNP encapsulating mRNA that expresses luciferase (cationic lipid:DOPC:Chol:DMG-PEG2k=55:5:40:1 (molar ratio)) was prepared by the method described in [Experimental Example 2], 1.
HeLa cells, which are human cervical cancer cells, were seeded in a 3.5 cm dish at 5.0×10^4 cells/2 mL/Dish 24 hours before transfection. After 24 hours, the medium was exchanged with a culture medium (D-MEM) containing 0.1 mM D-luciferin. Prepared mRNA-encapsulating LNP was diluted with PBS such that the concentration of mRNA was about 8 μg/mL. The diluted mRNA-encapsulating LNP solution (about 50 μL, mRNA: 0.4 μg) was added to the 3.5 cm dish and set in an incubator luminometer KronosDio. The luminescence intensity of luciferase was measured for 2 min every one hour. The cumulative luciferase luminescence intensity for 24 hr was calculated from the obtained time change of expression. For example, “1.0E+06” means “1.0×10^6”. In Comparative Example, the cationic lipid described in the aforementioned Table 3 were used.

[4] = test system: BALB/c mouse; experiment: Evaluation of in vivo gene expression (luciferase mRNA-encapsulating LNP, IVIS of isolated organs)
Protocol: as §2
The prepared each mRNA-encapsulating LNP dispersion was administered from the tail vein of BALB/c mouse (male, 5-week-old). The dose of mRNA was set to 0.05 mg per 1 kg body weight of the mouse, and the dose of the mRNA-encapsulating LNP dispersion was set to 10 μL per 1 g body weight of the mouse. After 4.5 hr from the administration of the mRNA-encapsulating LNP dispersion, a PBS solution of D-luciferin potassium was administered into the abdominal cavity of the mouse. The dose of D-luciferin potassium was set to 3 mg per mouse, and the dose of the PBS solution of D-luciferin potassium was set to 200 μL per mouse. After 15 min from the administration of the PBS solution of D-luciferin potassium, the mouse was euthanized, and the liver, spleen, kidney, heart, and lung were isolated. The luminescence in each organ was quantified using an in vivo imaging system (IVIS) with an exposure of 10 sec. The amount of luminescence in each organ was quantified by image analysis using Live Imaging software attached to IVIS. The amount of luminescence (photons/sec) was calculated from the acquired image and used as an index of gene expression activity. “E+0a” (a: integer) indicated in Table 7 and Table 8 means “10^a”. For example, “1.0E+02” means “1.0×10^2”. In Comparative Example, the cationic lipid described in the aforementioned Table 3 were used.

PdI [1]	particle size [1] [nm]	zeta potential [1] [mV]	pKa [2]	Structure (SMILES)	cumulative luciferase luminescence intensity over 24 hr [3] [RLU]	further results
0.072	82	−3.4	5.7	CCCCCCCCC(CCCCCC)C(=O)Oc1ccc(CC(=O)OCCSSCCOC(=O)CN(C)C)cc1 (stereo not drawn) [Example 1]		
0.072	84	−2.9	5.7	CCCCCCCCCCC(CCCCCCCCCC)C(=O)Oc1ccc(CC(=O)OCCSSCCOC(=O)CN(C)C)cc1 [Example 2]		
0.078	90	−3.0		CCCCCCCCCCCCCCC(CCCCCCCCCCCCCC)C(=O)Oc1ccc(CC(=O)OCCSSCCOC(=O)CN(C)C)cc1 [Example 3]		
0.116	64	12.2	7.8	CCCCCCCCC(CCCCCC)C(=O)Oc1ccc(CC(=O)OCCSSCCOC(=O)CCCN(C)C)cc1 (stereo not drawn) [Example 4]	3.09E+05	
0.071	67	−4.1		CCCCCCCC/C=C\CCCCCCCC(=O)Oc1ccc(CC(=O)OCCSSCCOC(=O)CN(C)C)cc1OC(=O)CCCCCCC/C=C\CCCCCCCC [Example 14]		
0.067	97	−2.5	6.4	CCCCCCCCCCCCCCCCC(CCCCCCCCCCCCCCCC)C(=O)Oc1ccc(CC(=O)OCCSSCCN(C)C)cc1 [Example 16]		
			8.8	CCCCCCCCCCCCCCCCC(CCCCCCCCCCCCCCCC)C(=O)Oc1ccc(CC(=O)NCCSSCCNC(=O)CCCN(C)C)cc1 [Example 20]		relative value based on Comparative Example (amount of luminescence in spleen) ([4]; spleen, relative to O-Ph-P4C2 LNP = 1.00): 0.05; amount of luminescence in each organ: heart ([4]; tail vein, mRNA 0.05 mg/kg, 4.5 hr + 15 min after administration, heart): 6.26E+05 photons/sec; amount of luminescence in each organ: kidney ([4]; tail vein, mRNA 0.05 mg/kg, 4.5 hr + 15 min after administration, kidney): 4.34E+05 photons/sec; amount of luminescence in each organ: liver ([4]; tail vein, mRNA 0.05 mg/kg, 4.5 hr + 15 min after administration, liver): 4.95E+05 photons/sec; amount of luminescence in each organ: lung ([4]; tail vein, mRNA 0.05 mg/kg, 4.5 hr + 15 min after administration, lung): 3.68E+05 photons/sec; amount of luminescence in each organ: spleen ([4]; tail vein, mRNA 0.05 mg/kg, 4.5 hr + 15 min after administration, spleen (Table 7)): 5.18E+05 photons/sec
			5.7	CCCCCCCCCCCCCCCCC(CCCCCCCCCCCCCCCC)C(=O)Oc1ccc(CC(=O)OCCSSCCOC(=O)NCCN2CCOCC2)cc1 [Example 26]	3.29E+05	
			5.7	CCCCCCCCCCCCCCCCC(CCCCCCCCCCCCCCCC)C(=O)Oc1ccc(CC(=O)OCCSSCCOC(=O)NCCN(CCCC)CCCC)cc1 [Example 27]	9.60E+05	
			7.2	CCCCCCCCCCCCCCCC(=O)OCC(C)(COC(=O)CCCCCCCCCCCCCCC)C(=O)Oc1ccc(CC(=O)OCCSSCCOC(=O)NCCN(CC)CC)cc1 [Example 32]	8.77E+07	gene expression activity compared to Comparative Example [3]: superior gene expression activity
			7.1	CCCCCCCCCCCCCCCCCC(=O)OCC(C)(COC(=O)CCCCCCCCCCCCCCCCC)C(=O)Oc1ccc(CC(=O)OCCSSCCOC(=O)NCCN(CC)CC)cc1 [Example 33]	5.38E+06	
0.106	106	−3.8		CCCCCCCCCCCCCCCCC(CCCCCCCCCCCCCCCC)C(=O)Oc1ccc(CC(=O)OCCSSCCOC(=O)/C=C/CN(C)C)cc1 [Example 38]	1.31E+05	
0.128	107	−5.3		CCCCCCCCCCCCCCCCC(CCCCCCCCCCCCCCCC)C(=O)Oc1ccc(CC(=O)OCCSSCCOC(=O)/C=C/CN(CC)CC)cc1 [Example 39]	3.95E+04	
0.104	89	0.1		CCCCCCCCCCCCCCCCC(CCCCCCCCCCCCCCCC)C(=O)Oc1ccc(CC(=O)OCCSSCCOC(=O)/C=C/CN(CC)CCO)cc1 [Example 40]	2.33E+05	
0.091	80	4.0		CCCCCCCCCCCCCCCCC(CCCCCCCCCCCCCCCC)C(=O)Oc1ccc(CC(=O)OCCCCSSCCCCOC(=O)CCCN(C)C)cc1 [Example 41]		
			7.3	CCCCCCCC/C=C\CCCCCCCC(=O)Oc1ccc(CC(=O)OCC(C)(COC(=O)Cc2ccc(OC(=O)CCCCCCC/C=C\CCCCCCCC)cc2)C(=O)OCCSSCCOC(=O)NCCN(CC)CC)cc1 [Example 42]	3.62E+07	gene expression activity compared to Comparative Example [3]: superior gene expression activity
